Calls of active or inactive are those of the source. The rule behind the calls is not given here.
Legend:
in vitro = conditions: human, Caco-2
Description: Apparent permeability from apical to basolateral side of the human Caco-2 cells

[1] = Metabolic stability in rat liver microsomes assessed as systemic clearance at 1 uM after 15 mins by LC-MS/MS analysis; format: ADME, Microsome
[2] = molecular target: Sodium-dependent noradrenaline transporter (Homo sapiens, UniProt P23975); test: biochemical
Description: Displacement of Levo[ring-2,5,6-3H]norepinephrine from human cloned NET expressed in HEK293 cells by microplate scintillation counter

[3] = molecular target: Sodium-dependent serotonin transporter (Homo sapiens, UniProt P31645); test: biochemical
Description: Displacement of [alpha,beta-3H(N)]-5-hydroxytryptamine from human cloned SERT expressed in HEK293 cells by microplate scintillation counter

[4] = Metabolic stability in human liver microsomes assessed as systemic clearance at 1 uM after 15 mins by LC-MS/MS analysis; format: ADME, Microsome
[5] = molecular target: Sodium-dependent dopamine transporter (Homo sapiens, UniProt Q01959); test: biochemical
Description: Displacement of 3,4-[ring-2,5,6-3H]dihydroxyphenylethylamine from human cloned DAT expressed in HEK293 cells by microplate scintillation counter

[6] = Lipophilicity, log D of the compound; format: physicochemical; conditions: octanol/water
[7] = Partition coefficient, log P of the compound; format: physicochemical; conditions: octanol/water
Cytochrome P450 2D6 = Cytochrome P450 2D6 (Homo sapiens, UniProt P10635); test: Inhibition of CYP2D6; format: ADME
[8] = Half life in Sprague-Dawley rat at 5 mg/kg, iv; format: ADME, organism-based; set-up: dose 5 mg/kg, route intravenous; conditions: in vivo
[9] = Ratio of drug level in brain to plasma in Sprague-Dawley rat at 30 mg/kg, po after 1 hr; format: ADME, organism-based; set-up: dose 30 mg/kg, route oral
[10] = Volume of distribution in Sprague-Dawley rat at 5 mg/kg, iv; format: ADME, organism-based; set-up: dose 5 mg/kg, route intravenous; conditions: in vivo
[11] = Tmax in Sprague-Dawley rat at 30 mg/kg, po; format: ADME, organism-based; set-up: dose 30 mg/kg, route oral; conditions: in vivo
Rattus norvegicus [12] = test: Antinociceptive activity in CD rat assessed as reduction in number of hind paw flinching at 60 mg/kg, po by formalin test; format: functional; set-up: scale not given: the % may be the effect or the level left
[13] = Plasma clearance in Sprague-Dawley rat at 5 mg/kg, iv; format: ADME, organism-based; set-up: dose 5 mg/kg, route intravenous
[14] = Drug level in Sprague-Dawley rat brain at 30 mg/kg, po after 4 hrs; format: ADME, organism-based; set-up: dose 30 mg/kg, route oral; conditions: read-out: Drug uptake
[15] = AUC in Sprague-Dawley rat at 30 mg/kg, po; format: ADME, organism-based; set-up: dose 30 mg/kg, route oral; conditions: plasma
[16] = Ratio of drug level in brain to plasma in Sprague-Dawley rat at 30 mg/kg, po after 4 hrs; format: ADME, organism-based; set-up: dose 30 mg/kg, route oral
[17] = molecular target: Voltage-gated inwardly rectifying potassium channel KCNH2 (Homo sapiens, UniProt Q12809)
Description: Inhibition of human ERG expressed in HEK293 cells by patch-clamp method

[18] = Renal clearance in Sprague-Dawley rat at 5 mg/kg, iv; format: ADME, organism-based, Kidney; set-up: dose 5 mg/kg, route intravenous; conditions: in vivo, read-out: CL_renal
[19] = Cmax in Sprague-Dawley rat at 30 mg/kg, po; format: ADME, organism-based; set-up: dose 30 mg/kg, route oral; conditions: in vivo
[20] = Drug level in Sprague-Dawley rat brain at 30 mg/kg, po after 1 hr; format: ADME, organism-based; set-up: dose 30 mg/kg, route oral; conditions: read-out: Drug uptake
[21] = AUC in Sprague-Dawley rat at 5 mg/kg, iv; format: ADME, organism-based; set-up: dose 5 mg/kg, route intravenous; conditions: plasma
[22] = Bioavailability in Sprague-Dawley rat at 5 mg/kg, iv; format: ADME, organism-based; conditions: in vivo
[23] = Volume of distribution at steady state in Sprague-Dawley rat at 5 mg/kg, iv; format: ADME, organism-based; set-up: dose 5 mg/kg, route intravenous; conditions: in vivo, read-out: Vdss
[24] = molecular target: Sodium-dependent serotonin transporter (Rattus norvegicus, UniProt P31652); format: cell-based, HEK293
[25] = Mean residence time in Sprague-Dawley rat at 5 mg/kg, iv; format: ADME, organism-based; set-up: dose 5 mg/kg, route intravenous; conditions: in vivo
Transporter = Transporter (Rattus norvegicus, UniProt Q63380); test: biochemical
Description: Displacement of Levo[ring-2,5,6-3H]norepinephrine from rat synaptosomal NET expressed in HEK293 cells by microplate scintillation counter

[26] = Apparent elimination half life in Sprague-Dawley rat at 30 mg/kg, po; format: ADME, organism-based; set-up: dose 30 mg/kg, route oral; conditions: in vivo, read-out: beta t1/2 (converted)
[27] = molecular target: Sodium-dependent dopamine transporter (Rattus norvegicus, UniProt P23977); test: biochemical
Description: Displacement of 3,4-[ring-2,5,6-3H]dihydroxyphenylethylamine from rat synaptosomal DAT expressed in HEK293 cells by microplate scintillation counter

[28] = Apparent oral clearance in Sprague-Dawley rat at 30 mg/kg, po; format: ADME, organism-based; set-up: dose 30 mg/kg, route oral; conditions: in vivo
[29] = Drug excretion in Sprague-Dawley rat urine at 5 mg/kg, iv; format: ADME, organism-based; set-up: dose 5 mg/kg, route intravenous; conditions: read-out: Activity
Rattus norvegicus [30] = species: Rattus norvegicus; test: Reversal of pin-prick-induced neuropathic mechanical hyperalgesia in Harlan Sprague-Dawley rat sciatic nerve ligation model; format: functional, organism-based
Rattus norvegicus [31] = test: Antinociceptive activity in CD rat assessed as reduction in number of hind paw flinching at 30 mg/kg, po by formalin test; format: functional, organism-based; set-up: dose 30 mg/kg
[32] = AUC in monkey at 5 mg/kg, iv or 30 mg/kg, po; format: ADME, organism-based, Macaca mulatta; conditions: rhesus monkey, plasma
[33] = Renal clearance in Beagle dog at 5 mg/kg, iv or 30 mg/kg, po; format: ADME, organism-based, Canis lupus familiaris, Kidney; conditions: in vivo, read-out: CL_renal
[34] = Plasma clearance in mouse at 5 mg/kg, iv or 30 mg/kg, po; format: ADME, organism-based
[35] = Volume of distribution at steady state in Beagle dog at 5 mg/kg, iv or 30 mg/kg, po; format: ADME, organism-based, Canis lupus familiaris; conditions: in vivo, read-out: Vdss
[36] = Bioavailability in mouse at 5 mg/kg, iv or 30 mg/kg, po; format: ADME, organism-based; conditions: in vivo
[37] = Plasma clearance in monkey at 5 mg/kg, iv or 30 mg/kg, po; format: ADME, organism-based, Macaca mulatta; conditions: rhesus monkey
[38] = Tmax in mouse at 5 mg/kg, iv or 30 mg/kg, po; format: ADME, organism-based; conditions: in vivo
[39] = Half life in mouse at 5 mg/kg, iv or 30 mg/kg, po; format: ADME, organism-based; conditions: in vivo
[40] = AUC in mouse at 5 mg/kg, iv or 30 mg/kg, po; format: ADME, organism-based; conditions: plasma
[41] = Tmax in Beagle dog at 5 mg/kg, iv or 30 mg/kg, po; format: ADME, organism-based, Canis lupus familiaris; conditions: in vivo
[42] = Volume of distribution at steady state in mouse at 5 mg/kg, iv or 30 mg/kg, po; format: ADME, organism-based; conditions: in vivo, read-out: Vdss
[43] = Bioavailability in monkey at 5 mg/kg, iv or 30 mg/kg, po; format: ADME, organism-based, Macaca mulatta; conditions: rhesus monkey, in vivo
[44] = Volume of distribution at steady state in monkey at 5 mg/kg, iv or 30 mg/kg, po; format: ADME, organism-based, Macaca mulatta; conditions: rhesus monkey, in vivo, read-out: Vdss
[45] = Plasma clearance in Beagle dog at 5 mg/kg, iv or 30 mg/kg, po; format: ADME, organism-based, Canis lupus familiaris
[46] = Half life in monkey at 5 mg/kg, iv or 30 mg/kg, po; format: ADME, organism-based, Macaca mulatta; conditions: rhesus monkey, in vivo
[47] = Bioavailability in Beagle dog at 5 mg/kg, iv or 30 mg/kg, po; format: ADME, organism-based, Canis lupus familiaris; conditions: in vivo
[48] = Tmax in monkey at 5 mg/kg, iv or 30 mg/kg, po; format: ADME, organism-based, Macaca mulatta; conditions: rhesus monkey, in vivo
[49] = Cmax in monkey at 5 mg/kg, iv or 30 mg/kg, po; format: ADME, organism-based, Macaca mulatta; conditions: rhesus monkey, in vivo
[50] = Half life in Beagle dog at 5 mg/kg, iv or 30 mg/kg, po; format: ADME, organism-based, Canis lupus familiaris; conditions: in vivo
[51] = Cmax in mouse at 5 mg/kg, iv or 30 mg/kg, po; format: ADME, organism-based; conditions: in vivo, read-out: Vdss
[52] = Renal clearance in monkey at 5 mg/kg, iv or 30 mg/kg, po; format: ADME, organism-based, Macaca mulatta, Kidney; conditions: rhesus monkey, in vivo; read-out: CL_renal
[53] = AUC in Beagle dog at 5 mg/kg, iv or 30 mg/kg, po; format: ADME, organism-based, Canis lupus familiaris; conditions: plasma

Chain of Sodium-dependent noradrenaline transporter (P23975 whole entry): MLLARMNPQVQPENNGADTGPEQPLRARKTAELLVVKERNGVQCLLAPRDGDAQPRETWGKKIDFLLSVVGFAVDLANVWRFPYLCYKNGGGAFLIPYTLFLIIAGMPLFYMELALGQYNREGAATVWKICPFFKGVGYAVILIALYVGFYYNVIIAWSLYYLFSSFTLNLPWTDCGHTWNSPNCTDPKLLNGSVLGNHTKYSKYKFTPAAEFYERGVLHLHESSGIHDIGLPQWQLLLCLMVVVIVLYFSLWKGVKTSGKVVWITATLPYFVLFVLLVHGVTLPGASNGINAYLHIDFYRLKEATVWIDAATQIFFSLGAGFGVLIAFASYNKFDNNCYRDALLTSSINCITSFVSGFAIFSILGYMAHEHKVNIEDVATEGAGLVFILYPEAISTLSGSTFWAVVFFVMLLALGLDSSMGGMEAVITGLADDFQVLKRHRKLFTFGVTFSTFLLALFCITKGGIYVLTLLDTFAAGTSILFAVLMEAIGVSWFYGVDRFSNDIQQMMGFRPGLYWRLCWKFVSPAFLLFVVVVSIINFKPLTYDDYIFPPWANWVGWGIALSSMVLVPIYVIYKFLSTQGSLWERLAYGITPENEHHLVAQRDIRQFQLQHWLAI
Chain of Sodium-dependent serotonin transporter (Homo sapiens, UniProt P31645) (P31645 whole entry): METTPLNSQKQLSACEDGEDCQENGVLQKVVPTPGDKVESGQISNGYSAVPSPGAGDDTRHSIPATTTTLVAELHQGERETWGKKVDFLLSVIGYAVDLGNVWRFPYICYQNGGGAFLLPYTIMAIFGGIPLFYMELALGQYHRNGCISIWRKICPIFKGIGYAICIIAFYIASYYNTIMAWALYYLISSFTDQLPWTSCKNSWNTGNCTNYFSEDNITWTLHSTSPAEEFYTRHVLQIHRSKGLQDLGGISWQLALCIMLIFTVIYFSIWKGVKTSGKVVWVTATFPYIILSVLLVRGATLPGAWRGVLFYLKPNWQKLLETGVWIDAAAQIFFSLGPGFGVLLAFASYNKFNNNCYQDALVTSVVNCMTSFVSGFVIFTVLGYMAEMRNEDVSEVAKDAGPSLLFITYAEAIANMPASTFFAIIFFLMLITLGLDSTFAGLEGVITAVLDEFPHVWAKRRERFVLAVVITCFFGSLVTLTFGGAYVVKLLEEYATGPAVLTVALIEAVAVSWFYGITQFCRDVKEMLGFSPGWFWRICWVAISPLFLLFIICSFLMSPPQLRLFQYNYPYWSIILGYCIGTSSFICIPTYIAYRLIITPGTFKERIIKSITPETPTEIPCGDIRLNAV
Chain of Sodium-dependent dopamine transporter (Homo sapiens, UniProt Q01959) (Q01959 whole entry): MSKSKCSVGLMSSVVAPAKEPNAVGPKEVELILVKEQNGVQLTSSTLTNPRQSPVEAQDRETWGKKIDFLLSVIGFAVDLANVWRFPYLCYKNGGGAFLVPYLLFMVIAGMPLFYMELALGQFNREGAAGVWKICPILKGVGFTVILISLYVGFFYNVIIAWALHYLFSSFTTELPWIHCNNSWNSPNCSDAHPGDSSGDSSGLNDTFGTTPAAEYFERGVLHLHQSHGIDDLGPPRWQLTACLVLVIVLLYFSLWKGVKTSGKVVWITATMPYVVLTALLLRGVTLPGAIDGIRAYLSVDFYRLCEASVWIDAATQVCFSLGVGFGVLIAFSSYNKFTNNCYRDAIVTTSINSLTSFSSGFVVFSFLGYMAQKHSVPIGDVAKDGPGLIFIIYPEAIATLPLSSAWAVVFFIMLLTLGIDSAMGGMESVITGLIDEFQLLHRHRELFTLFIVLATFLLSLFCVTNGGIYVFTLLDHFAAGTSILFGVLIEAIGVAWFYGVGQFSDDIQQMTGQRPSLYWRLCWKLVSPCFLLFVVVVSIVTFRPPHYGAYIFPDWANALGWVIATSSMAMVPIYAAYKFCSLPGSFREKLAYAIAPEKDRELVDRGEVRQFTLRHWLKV
Chain of Sodium-dependent dopamine transporter (Rattus norvegicus, UniProt P23977) (P23977 whole entry): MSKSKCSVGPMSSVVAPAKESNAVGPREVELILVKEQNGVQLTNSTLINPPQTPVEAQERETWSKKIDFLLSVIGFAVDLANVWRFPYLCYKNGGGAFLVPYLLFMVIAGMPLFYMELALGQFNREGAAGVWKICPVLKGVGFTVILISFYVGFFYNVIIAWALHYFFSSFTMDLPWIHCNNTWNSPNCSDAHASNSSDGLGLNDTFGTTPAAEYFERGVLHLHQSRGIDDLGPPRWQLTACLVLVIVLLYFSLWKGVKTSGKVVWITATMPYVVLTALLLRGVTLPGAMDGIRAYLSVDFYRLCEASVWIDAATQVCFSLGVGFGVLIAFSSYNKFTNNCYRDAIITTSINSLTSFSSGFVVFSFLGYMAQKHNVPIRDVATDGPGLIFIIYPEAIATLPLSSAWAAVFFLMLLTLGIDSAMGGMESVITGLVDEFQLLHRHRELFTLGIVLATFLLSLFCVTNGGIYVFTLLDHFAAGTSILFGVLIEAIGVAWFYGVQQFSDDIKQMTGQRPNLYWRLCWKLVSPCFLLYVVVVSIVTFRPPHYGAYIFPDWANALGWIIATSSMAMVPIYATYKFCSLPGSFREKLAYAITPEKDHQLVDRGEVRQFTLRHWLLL
Chain of Sodium-dependent serotonin transporter (Rattus norvegicus, UniProt P31652) (P31652 whole entry): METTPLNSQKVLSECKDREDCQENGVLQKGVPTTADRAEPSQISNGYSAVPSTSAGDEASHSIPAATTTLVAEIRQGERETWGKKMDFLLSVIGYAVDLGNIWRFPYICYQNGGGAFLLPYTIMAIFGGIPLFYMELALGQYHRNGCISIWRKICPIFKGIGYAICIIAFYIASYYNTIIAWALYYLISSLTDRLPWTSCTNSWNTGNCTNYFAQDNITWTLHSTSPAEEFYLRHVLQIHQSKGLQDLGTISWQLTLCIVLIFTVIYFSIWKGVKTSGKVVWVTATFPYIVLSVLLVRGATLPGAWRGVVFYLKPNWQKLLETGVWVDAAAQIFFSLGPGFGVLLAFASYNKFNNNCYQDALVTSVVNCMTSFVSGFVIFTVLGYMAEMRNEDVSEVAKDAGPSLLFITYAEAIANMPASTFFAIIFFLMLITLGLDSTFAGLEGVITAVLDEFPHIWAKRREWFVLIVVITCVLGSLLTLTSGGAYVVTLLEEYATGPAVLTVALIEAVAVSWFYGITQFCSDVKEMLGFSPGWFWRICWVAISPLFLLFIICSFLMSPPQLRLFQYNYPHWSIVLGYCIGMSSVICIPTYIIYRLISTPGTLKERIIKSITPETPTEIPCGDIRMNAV
Chain of Transporter (Q63380 whole entry): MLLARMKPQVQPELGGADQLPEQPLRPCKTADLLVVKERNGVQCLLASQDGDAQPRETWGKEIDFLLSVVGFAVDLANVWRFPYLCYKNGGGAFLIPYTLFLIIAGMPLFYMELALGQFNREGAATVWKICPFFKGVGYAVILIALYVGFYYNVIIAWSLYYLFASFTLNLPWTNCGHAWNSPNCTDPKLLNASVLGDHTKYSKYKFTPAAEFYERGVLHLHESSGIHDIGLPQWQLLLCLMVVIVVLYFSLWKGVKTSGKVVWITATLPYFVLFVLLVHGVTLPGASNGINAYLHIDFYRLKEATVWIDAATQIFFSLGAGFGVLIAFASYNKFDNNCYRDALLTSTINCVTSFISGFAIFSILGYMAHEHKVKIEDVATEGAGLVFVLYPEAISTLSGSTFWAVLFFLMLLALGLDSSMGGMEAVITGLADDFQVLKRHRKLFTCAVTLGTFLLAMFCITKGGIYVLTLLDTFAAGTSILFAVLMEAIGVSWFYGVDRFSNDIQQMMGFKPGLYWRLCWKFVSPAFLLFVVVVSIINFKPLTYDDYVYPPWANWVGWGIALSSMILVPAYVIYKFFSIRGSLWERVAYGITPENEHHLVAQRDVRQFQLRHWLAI
Chain of Cytochrome P450 2D6 (P10635 whole entry): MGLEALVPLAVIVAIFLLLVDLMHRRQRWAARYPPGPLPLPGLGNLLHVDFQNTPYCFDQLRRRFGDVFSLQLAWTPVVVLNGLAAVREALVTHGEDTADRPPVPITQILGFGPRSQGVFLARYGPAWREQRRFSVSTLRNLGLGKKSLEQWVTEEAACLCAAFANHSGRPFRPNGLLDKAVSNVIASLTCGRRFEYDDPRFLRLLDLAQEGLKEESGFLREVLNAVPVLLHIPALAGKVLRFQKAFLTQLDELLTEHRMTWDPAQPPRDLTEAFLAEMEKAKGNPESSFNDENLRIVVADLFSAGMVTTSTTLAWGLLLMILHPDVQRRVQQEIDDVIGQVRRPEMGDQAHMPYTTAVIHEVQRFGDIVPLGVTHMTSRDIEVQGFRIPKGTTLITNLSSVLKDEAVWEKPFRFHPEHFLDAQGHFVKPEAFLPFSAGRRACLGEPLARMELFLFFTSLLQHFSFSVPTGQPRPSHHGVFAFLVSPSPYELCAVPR
Description for physchem: Dissociation constant, pKa of the compound

Structure (SMILES): C[C@H]1O[C@@H](O[C@H]2[C@@H](O)C[C@H](O[C@H]3[C@@H](O)C[C@H](O[C@H]4CC[C@@]5(C)[C@H](CC[C@@H]6[C@@H]5C[C@@H](O)[C@]5(C)[C@@H](C7=CC(=O)OC7)CC[C@]65O)C4)O[C@@H]3C)O[C@@H]2C)C[C@H](O)[C@@H]1O [DIGOXIN]
- Papp A→B (in vitro): 1 ×10⁻⁶ cm/s

Structure (SMILES): C#CCN(CC#C)C(=O)[C@@]1(c2cccs2)C[C@H]1CN
- Papp A→B (in vitro): 25 ×10⁻⁶ cm/s
- CLhep predicted at 1 µM [1]: 43 mL/min/kg
- pKa (physchem): 9.3
- IC50 [2]: 6 nM
- IC50 [3]: 26 nM
- CLhep predicted at 1 µM [4]: 2.6 mL/min/kg
- IC50 [5]: > 10000 nM
- logD [6]: 0.2
- logP [7]: 1.5

Structure (SMILES): C=C(F)CN(CC)C(=O)[C@@]1(c2cccs2)C[C@H]1CN
- IC50 (Cytochrome P450 2D6): 6000 nM
- half-life [8]: 0.6 h
- Kp at 1 h [9]: 0.73
- Vd [10]: 7.5 L/kg
- Tmax [11]: 0.4 h
- Activity (Rattus norvegicus [12]): 56%
- clearance [13]: 140 mL/min/kg
- Papp A→B (in vitro): 16.7 ×10⁻⁶ cm/s
- CLhep predicted at 1 µM [1]: 54 mL/min/kg
- concentration at 4 h [14]: 31 ng/g
- AUC [15]: 1500 ng·h/mL
- Kp at 4 h [16]: 1.1
- IC50 [17]: > 10000 nM
- CL renal [18]: 59 mL/min/kg
- pKa (physchem): 9.4
- IC50 [2]: 4.4 nM
- Cmax [19]: 974 ng/mL
- concentration at 1 h [20]: 70 ng/g
- AUC [21]: 532 ng·h/mL
- bioavailability [22]: 47%
- Vd [23]: 5.5 L/kg
- IC50 [24]: 160 nM
- IC50 [3]: 97 nM
- CLhep predicted at 1 µM [4]: 2.6 mL/min/kg
- MRT [25]: 0.7 h
- IC50 (Transporter): 21 nM
- half-life [26]: 0.9 h
- IC50 [5]: > 10000 nM
- IC50 [27]: > 10000 nM
- logD [6]: 0.2
- logP [7]: 1.8
- CL/F [28]: 334 mL/min/kg
- dose excreted [29]: 30%

Structure (SMILES): C#CCN(CC)C(=O)[C@@]1(c2cccs2)C[C@H]1CN
- Kp at 1 h [9]: 0.3
- Tmax [11]: 1.7 h
- Activity (Rattus norvegicus [12]): 56%
- Papp A→B (in vitro): 20.6 ×10⁻⁶ cm/s
- CLhep predicted at 1 µM [1]: 44 mL/min/kg
- concentration at 4 h [14]: 112 ng/g
- AUC [15]: 3210 ng·h/mL
- Kp at 4 h [16]: 0.3
- pKa (physchem): 9.4
- IC50 [2]: 19 nM
- Cmax [19]: 649 ng/mL
- concentration at 1 h [20]: 230 ng/g
- IC50 [24]: 160 nM
- IC50 [3]: 81 nM
- CLhep predicted at 1 µM [4]: 2.6 mL/min/kg
- IC50 (Transporter): 160 nM
- half-life [26]: 1.9 h
- IC50 [5]: > 10000 nM
- IC50 [27]: > 10000 nM
- logD [6]: 0.1
- logP [7]: 1.6
- CL/F [28]: 156 mL/min/kg

Structure (SMILES): C=CCN(CC=C)C(=O)[C@@]1(c2cccs2)C[C@H]1CN
- Activity (Rattus norvegicus [30]): Dose-dependent effect
- Activity (Rattus norvegicus [31]): Active

Structure (SMILES): C=CCN(CC=C)C(=O)[C@@]1(c2cccs2)C[C@H]1CN.Cl
- AUC [32]: 6320 ng·h/mL
- CL renal [33]: 2 mL/min/kg
- clearance [34]: 135 mL/min/kg
- Vd [35]: 3.6 L/kg
- bioavailability [36]: 92%
- clearance [37]: 22.9 mL/min/kg
- Tmax [38]: 0.3 h
- half-life [39]: 0.79 h
- AUC [40]: 3020 ng·h/mL
- Tmax [41]: 1.8 h
- Vd [42]: 5.4 L/kg
- bioavailability [43]: 34%
- Vd [44]: 3.8 L/kg
- clearance [45]: 19.2 mL/min/kg
- half-life [46]: 2.1 h
- bioavailability [47]: 78%
- Tmax [48]: 4.5 h
- Cmax [49]: 905 ng/mL
- half-life [50]: 2.4 h
- Cmax [51]: 1730 ng/mL
- CL renal [52]: 3.9 mL/min/kg
- AUC [53]: 17100 ng·h/mL
